Data reported in patent US8969343B2, “Histone demethylase inhibitors” (priority 2012, dated 2015).

Target: T1, JMJD2C (Homo sapiens, UniProt Q9H3R0)
T1 sequence (Q9H3R0 2-372): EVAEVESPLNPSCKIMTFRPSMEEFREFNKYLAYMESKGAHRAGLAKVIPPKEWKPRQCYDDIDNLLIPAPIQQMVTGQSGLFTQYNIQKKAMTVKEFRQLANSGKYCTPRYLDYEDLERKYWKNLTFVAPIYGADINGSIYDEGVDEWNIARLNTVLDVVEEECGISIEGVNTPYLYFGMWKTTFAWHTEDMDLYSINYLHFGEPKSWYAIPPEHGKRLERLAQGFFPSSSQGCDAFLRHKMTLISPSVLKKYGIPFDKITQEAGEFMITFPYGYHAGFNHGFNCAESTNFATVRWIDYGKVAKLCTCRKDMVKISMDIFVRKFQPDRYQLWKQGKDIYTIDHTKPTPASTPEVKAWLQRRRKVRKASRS
Assay: JMJD2C in vitro enzyme inhibition assay (TR-FRET)
Format: biochemical
Conditions: 0.3 nM JMJD2C, 300 nM H3K9me3-biotin peptide, 2 μM alpha-ketoglutaric acid
Protocol: This assay determines the ability of a test compound to inhibit Jarid1A, Jarid1B, and JMJD2C demethylase activity.
Reaction product was determined quantitatively by TR-FRET after the addition of detection reagent Phycolink Streptavidin-allophycocyanin (Prozyme) and Europium-anti-di-methylated histone H3 lysine 9 (H3K9me2) antibody (PerkinElmer) in the presence of 5 mM EDTA in LANCE detection buffer (PerkinElmer) at a final concentration of 50 nM and 1 nM, respectively.
The assay reaction was initiated by the following: 2 μl of the mixture of 900 nM H3K9me3-biotin labeled peptide and 6 μM alpha-ketoglutaric acid with 2 μl of 11-point serial diluted inhibitor in 3% DMSO were added to each well of the plate, followed by the addition of 2 μl of 0.9 nM JMJD2C to initiate the reaction. The reaction mixture was incubated at room temperature for 30 minutes, and terminated by the addition of 6 μl of 5 mM EDTA in LANCE detection buffer containing 100 nM Phycolink Streptavidin-allophycocyanin and 2 nM Europium-anti-H3K9me2 antibody.

Structure (SMILES) | IC50
Cn1nc(Nc2cnccc2C(=O)O)c2cc(Cl)ccc21 [Example 4] | 100 to 1000 nM
Cc1ccc2c(Nc3cnccc3C(=O)O)nn(C)c2c1 [Example 5, 3-[(1,6-dimethyl-1H-indazol-3-yl)amino]pyridine-4-carboxylic acid] | 100 to 1000 nM
COc1ccc2c(Nc3cnccc3C(=O)O)nn(C)c2c1 [Example 8, 3-[(6-methoxy-1-methyl-1H-indazol-3-yl)amino]pyridine-4-carboxylic acid] | 100 to 1000 nM
CCCn1nc(Nc2cnccc2C(=O)O)c2ccccc21 [Example 9, 3-[(1-propyl-1H-indazol-3-yl)amino]pyridine-4-carboxylic acid] | 100 to 1000 nM
COCCn1nc(Nc2cnccc2C(=O)O)c2ccccc21 [Example 10, 3-{[1-(2-methoxyethyl)-1H-indazol-3-yl]amino}pyridine-4-carboxylic acid] | 100 to 1000 nM
CCCn1nc(Nc2cnccc2C(=O)O)c2cc(F)ccc21 [Example 15, 3-[(5-fluoro-1-propyl-1H-indazol-3-yl)amino]pyridine-4-carboxylic acid] | 100 to 1000 nM
O=C(O)c1ccncc1Nc1nn(CC2CC2)c2ccc(F)cc12 [Example 16, 3-{[1-(cyclopropylmethyl)-5-fluoro-1H-indazol-3-yl]amino}pyridine-4-carboxylic acid] | 100 to 1000 nM
CCCCCn1nc(Nc2cnccc2C(=O)O)c2cc(F)ccc21 [Example 18, 3-[(5-fluoro-1-pentyl-1H-indazol-3-yl)amino]pyridine-4-carboxylic acid] | 100 to 1000 nM
O=C(O)c1ccncc1Nc1nn(CCc2ccccc2)c2ccc(F)cc12 [Example 19, 3-{[5-fluoro-1-(2-phenethyl)-1H-indazol-3-yl]amino}pyridine-4-carboxylic acid] | 100 to 1000 nM
O=C(O)c1ccncc1Nc1nn(CC2CCCO2)c2ccc(F)cc12 (centres unmarked) [Example 21, 3-{[5-fluoro-1-(tetrahydrofuran-2-ylmethyl)-1H-indazol-3-yl]amino}pyridine-4-carboxylic acid] | 100 to 1000 nM
O=C(O)c1ccncc1Nc1nn(CC(F)(F)F)c2ccc(F)cc12 [Example 23, 3-{[5-fluoro-1-(2,2,2-trifluoroethyl)-1H-indazol-3-yl]amino}pyridine-4-carboxylic acid] | 100 to 1000 nM
CC(C)Cn1nc(Nc2cnccc2C(=O)O)c2cc(F)ccc21 [Example 25, 3-{[5-fluoro-1-(2-methylpropyl)-1H-indazol-3-yl]amino}pyridine-4-carboxylic acid] | 100 to 1000 nM
CCC(C)n1nc(Nc2cnccc2C(=O)O)c2cc(F)ccc21 (centres unmarked) [Example 26, 3-{[5-fluoro-1-(butan-2-yl)-1H-indazol-3-yl]amino}pyridine-4-carboxylic acid] | 100 to 1000 nM
O=C(O)c1ccncc1Nc1nn(CC2CCC2)c2ccc(F)cc12 [Example 28, 3-{[1-(cyclobutylmethyl)-5-fluoro-1H-indazol-3-yl]amino}pyridine-4-carboxylic acid] | 100 to 1000 nM
O=C(O)c1ccncc1Nc1nn(C2CCCC2)c2ccc(F)cc12 [Example 29, 3-[(1-cyclopentyl-5-fluoro-1H-indazol-3-yl)amino]pyridine-4-carboxylic acid] | 100 to 1000 nM
O=C(O)c1ccncc1Nc1nn(CC2CCCC2)c2ccc(F)cc12 [Example 30, 3-{[1-(cyclopentylmethyl)-5-fluoro-1H-indazol-3-yl]amino}pyridine-4-carboxylic acid] | 100 to 1000 nM
O=C(O)c1ccncc1Nc1nn(CCC2CC2)c2ccc(F)cc12 [Example 31, 3-{[1-(cyclopropylethyl)-5-fluoro-1H-indazol-3-yl]amino}pyridine-4-carboxylic acid] | 100 to 1000 nM
O=C(O)c1ccncc1Nc1nn(CCC(F)(F)F)c2ccc(F)cc12 [Example 32, 3-{[5-fluoro-1-(3,3,3-trifluoropropyl)-1H-indazol-3-yl]amino}pyridine-4-carboxylic acid] | 100 to 1000 nM
CCCn1nc(Nc2cnccc2C(=O)O)c2cc(Cl)ccc21 [Example 33, 3-[(5-chloro-1-propyl-1H-indazol-3-yl)amino]pyridine-4-carboxylic acid] | 100 to 1000 nM

Structure (SMILES) | IC50
O=C(O)c1ccncc1Nc1nn(CC2CC2)c2ccc(Cl)cc12 [Example 34, 3-{[5-chloro-1-(cyclopropylmethyl)-1H-indazol-3-yl]amino}pyridine-4-carboxylic acid] | 100 to 1000 nM
O=C(O)c1ccncc1Nc1nn(CCC(F)(F)F)c2ccc(Cl)cc12 [Example 35, 3-{[5-chloro-1-(3,3,3-trifluoropropyl)-1H-indazol-3-yl]amino}pyridine-4-carboxylic acid] | 100 to 1000 nM
CCn1nc(Nc2cnccc2C(=O)O)c2cc(C)ccc21 [Example 36, 3-[(1-ethyl-5-methyl-1H-indazol-3-yl)amino]pyridine-4-carboxylic acid] | 100 to 1000 nM
Cc1ccc2c(c1)c(Nc1cnccc1C(=O)O)nn2CC1CC1 [Example 37, 3-{[1-(cyclopropylmethyl)-5-methyl-1H-indazol-3-yl]amino}pyridine-4-carboxylic acid] | 100 to 1000 nM
CCCn1nc(Nc2cnccc2C(=O)O)c2cc(C)ccc21 [Example 38, 3-[(5-methyl-1-propyl-1H-indazol-3-yl)amino]pyridine-4-carboxylic acid] | 100 to 1000 nM
Cc1ccc2c(c1)c(Nc1cnccc1C(=O)O)nn2CCC(F)(F)F [Example 39, 3-{[5-methyl-1-(3,3,3-trifluoropropyl)-1H-indazol-3-yl]amino}pyridine-4-carboxylic acid] | 100 to 1000 nM
Cn1cc(Nc2cnccc2C(=O)O)c2cccnc21 [Example 52, 3-[(1-methyl-1H-pyrrolo[2,3-b]pyridine-3-yl)amino]pyridine-4-carboxylic acid] | 100 to 1000 nM
CCCn1cc(Nc2cnccc2C(=O)O)c2cc(F)ccc21 [Example 57, 3-[(5-fluoro-1-propyl-1H-indol-3-yl)amino]pyridine-4-carboxylic acid] | 100 to 1000 nM
O=C(O)c1ccncc1Nc1cn(CCC(F)(F)F)c2ccc(Cl)cc12 [Example 59, 3-{[5-chloro-1-(3,3,3-trifluoropropyl)-1H-indol-3-yl]amino}pyridine-4-carboxylic acid] | 100 to 1000 nM
O=C(O)c1ccncc1Nc1nn(C2CCOCC2)c2ccc(F)cc12 [Example 62, 3-{[5-fluoro-1-(tetrahydro-2H-pyran-4-yl)-1H-indazol-3-yl]amino}pyridine-4-carboxylic acid] | 100 to 1000 nM
O=C(O)c1ccncc1Nc1nn(C2CCCOC2)c2ccc(F)cc12 (centres unmarked) [Example 63, 3-{[5-fluoro-1-(tetrahydro-2H-pyran-3-yl)-1H-indazol-3-yl]amino}pyridine-4-carboxylic acid] | 100 to 1000 nM
O=C(O)c1ccncc1Nc1cn(C2CCOC2)c2ccc(F)cc12 (centres unmarked) [Example 68, 3-{[5-fluoro-1-(tetrahydrofuran-3-yl)-1H-indol-3-yl]amino}pyridine-4-carboxylic acid] | 100 to 1000 nM
O=C(O)c1ccncc1Nc1nn(C2CCOC2)c2ccc(Cl)cc12 (centres unmarked) [Example 69, 3-{[5-chloro-1-(tetrahydrofuran-3-yl)-1H-indazol-3-yl]amino}pyridine-4-carboxylic acid] | 100 to 1000 nM
N#CNC(=O)c1ccncc1Nc1nn([C@H]2CCOC2)c2ccc(F)cc12 [Example 70, N-cyano-3-({5-fluoro-1-[(3S)-tetrahydrofuran-3-yl]-1H-indazol-3-yl}amino)pyridine-4-carboxamide] | 1000 to 10000 nM
N#CNC(=O)c1ccncc1Nc1nn(CCN2CCC(F)(F)C2)c2ccc(F)cc12 [Example 72, N-cyano-3-({1-[2-(3,3-difluoropyrrolidin-1 yl)ethyl]-5-fluoro-1H-indazol-3-yl}amino)pyridine-4-carboxamide] | 1000 to 10000 nM
N#CNC(=O)c1ccncc1Nc1nn(CCN2CCC(F)(F)CC2)c2ccc(F)cc12 [Example 74, N-cyano-3-({1-[2-(4,4-difluoropiperidin-1 yl)ethyl]-5-fluoro-1H-indazol-3-yl}amino)pyridine-4-carboxamide] | 1000 to 10000 nM
CC(C)Cn1nc(Nc2cnccc2C(=O)NC#N)c2cc(F)ccc21 [Example 75, N-cyano-3-{[5-fluoro-1-(2-methylpropyl)-1H-indazol-3-yl]amino}pyridine-4-carboxamide] | 1000 to 10000 nM
CN(C)CCCCn1nc(Nc2cnccc2C(=O)NC#N)c2cc(F)ccc21 [Example 76, N-cyano-3-({1-[4-(dimethylamino)butyl]-5-fluoro-1H-indazol-3-yl}amino)pyridine-4-carboxamide] | 100 to 1000 nM
N#CNC(=O)c1ccncc1Nc1nn(CCN2CCCC2)c2ccc(Cl)cc12 [Example 79, N-cyano-3-({5-chloro-1-[2-(pyrrolidin-1-yl)ethyl]-1H-indazol-3-yl}amino)pyridine-4-carboxamide] | 100 to 1000 nM
